Assay results reported in patent US7351737B2, “4-[(8-substituted)-6-chromanoyl]-and 4-[8-substituted)-chroman-6-YL-ethynyl]-benzoic and phenylacetic acids, their esters and salts having cytochrome P450RAI inhibitory activity” (Allergan, Inc., priority 2002, dated 2008).

System: skin of fuzzy rats
Test: Topical skin irritation test
Assay type: in vivo, female fuzzy rats (Hsd:FUZZY-fz)
Details: 0.1% retinol alone, topical in acetone, daily Day 1-14; group average of erythema/eschar grade 0-4 (Table 2)
From the text: The topical retinoid all-trans-retinoic acid (ATRA) and oral retinoids such as 13-cis RA and etretinate are known to induce substantial skin irritation in humans. This irritation is a direct result of activation of the RAR nuclear receptors. Analysis of retinoid topical irritation is also a highly reproducable method of determining in vivo retinoid potency. The female fuzzy rats provide a convenient animal model of topical irritation, since retinoid-induced skin flaking and abrasion can be readily scored by eye, while their larger size than those of mice also allows multiple sampling of serum for clinical analyses. Topical application of P450RAI inhibitors should cause an increase in the endogenous levels of ATRA that would result in ATRA-induced irritation in skin of hairless mice. In these tests female fuzzy rats ((Hsd:FUZZY-fz), 6-7 weeks old, were obtained from Harlan Sprague-Dawley (Indianapolis, Ind.). The animals were about 8-9 weeks old at the start of the experiments. Food (Purina Rodent Chow 5001) and water purified by reverse osmosis were provided ad libitum. The rats were housed individually throughout the dosing period. Test chemicals were dissolved in acetone (vehicle) for application to the backs of the rats. Two days prior to actual administration of the test compounds, rats were handled daily and dosed with vehicle at a volume of 0.5 ml/kg. Starting on Day 1 thought Day 14 (dosing period), animals were dosed with the vehicle or compound(s) according to their group assignment. The rats in the tests were observed daily and the dorsal skin was graded for the degree of erythema/eschar and overall appearance. The scoring was in accordance with Table 2, below. [table] Daily group average was calculated by dividing the sum of the individual grade by the number of animals in each treatment group. The attached data in Table 3 indicates the retinoid-mimetic effects of some P450RAI inhibitors on the skin of fuzzy rats in the above described tests and in accordance with the above-indicated scoring.

SMILES: CC1=C(/C=C/C(C)=C/C=C/C(C)=C/CO)C(C)(C)CCC1 [retinol, reference compound]
- Irritation Score on day 14: 1
